# According to ChEMBL document CHEMBL1212746, “Assessment of the in vitro kinetic activity of caspofungin against Candida glabrata” (2010):
# Experiments:
# Nakaseomyces glabratus [1] = test: Antifungal activity against Candida glabrata by broth microdilution assay; type: functional
# Nakaseomyces glabratus [2] = test: Antifungal activity against Candida glabrata assessed as fungicidal activity by broth microdilution assay; type: functional
# Nakaseomyces glabratus [3] = test: Antifungal activity against fluconazole-resistant Candida glabrata isolate 01 in presence of fluconazole by broth microdilution assay; type: functional
# Nakaseomyces glabratus [4] = test: Antifungal activity against fluconazole-resistant Candida glabrata isolate 04 in presence of fluconazole by broth microdilution assay; type: functional
# Nakaseomyces glabratus [5] = test: Antifungal activity against fluconazole-susceptible Candida glabrata isolate 03 in presence of fluconazole by broth microdilution assay
# Nakaseomyces glabratus [6] = test: Antifungal activity against fluconazole-resistant Candida glabrata isolate 05 by broth microdilution assay; type: functional
# Nakaseomyces glabratus [7] = test: Antifungal activity against fluconazole-resistant Candida glabrata isolate 02 by broth microdilution assay; type: functional
# Nakaseomyces glabratus [8] = test: Antifungal activity against fluconazole-resistant Candida glabrata isolate 03 by broth microdilution assay; type: functional
# Nakaseomyces glabratus [9] = test: Antifungal activity against Candida glabrata assessed as time to kill at 4 ug/ml; type: functional
# Nakaseomyces glabratus [10] = test: Antifungal activity against fluconazole-resistant Candida glabrata isolate 05 in presence of amphotericin B by broth microdilution assay
# Nakaseomyces glabratus [11] = test: Antifungal activity against fluconazole-resistant Candida glabrata isolate 04 by broth microdilution assay; type: functional
# Nakaseomyces glabratus [12] = test: Antifungal activity against fluconazole-resistant Candida glabrata isolate 02 in presence of voriconazole by broth microdilution assay
# Nakaseomyces glabratus [13] = test: Antifungal activity against fluconazole-resistant Candida glabrata isolate 01 by broth microdilution assay; type: functional
# Nakaseomyces glabratus [14] = test: Antifungal activity against Candida glabrata assessed as time to kill at 1 ug/ml; type: functional
Compound,MIC50 (Nakaseomyces glabratus [1]) [µg/mL],MIC90 (Nakaseomyces glabratus [1]) [µg/mL],MFC (Nakaseomyces glabratus [2]) [µg/mL],fractional inhibitory concentration index (FICI) (Nakaseomyces glabratus [3]),fractional inhibitory concentration index (FICI) (Nakaseomyces glabratus [4]),fractional inhibitory concentration index (FICI) (Nakaseomyces glabratus [5]),MIC (Nakaseomyces glabratus [6]) [µg/mL],MIC (Nakaseomyces glabratus [7]) [µg/mL],MIC (Nakaseomyces glabratus [8]) [µg/mL],Time (Nakaseomyces glabratus [9]) [h],fractional inhibitory concentration index (FICI) (Nakaseomyces glabratus [10]),MIC (Nakaseomyces glabratus [11]) [µg/mL],fractional inhibitory concentration index (FICI) (Nakaseomyces glabratus [12]),MIC (Nakaseomyces glabratus [13]) [µg/mL],Time (Nakaseomyces glabratus [14]) [h]
C[C@@H]1[C@H](O)[C@@H](C)/C=C/C=C/C=C/C=C/C=C/C=C/C=C/[C@H](O[C@@H]2O[C@H](C)[C@@H](O)[C@H](N)[C@@H]2O)C[C@@H]2O[C@](O)(C[C@@H](O)C[C@@H](O)[C@H](O)CC[C@@H](O)C[C@@H](O)CC(=O)O[C@H]1C)C[C@H](O)[C@H]2C(=O)O [AMPHOTERICIN B],0.5,1,1,–,–,–,–,–,–,–,–,–,–,–,–
CC[C@H](C)C[C@H](C)CCCCCCCCC(=O)N[C@H]1C[C@@H](O)[C@@H](NCCN)NC(=O)[C@@H]2[C@@H](O)CCN2C(=O)[C@H]([C@H](O)CCN)NC(=O)[C@H]([C@H](O)[C@@H](O)c2ccc(O)cc2)NC(=O)[C@@H]2C[C@@H](O)CN2C(=O)[C@H]([C@@H](C)O)NC1=O [CASPOFUNGIN],0.5,2,4,<0.5,0.5625,0.185,0.25,0.25,0.5,2,1.06,0.5,0.56,0.5,4
OC(Cn1cncn1)(Cn1cncn1)c1ccc(F)cc1F [FLUCONAZOLE],4,32,> 128,–,–,–,1,64,2,–,–,32,–,128,–
C[C@@H](c1ncncc1F)[C@](O)(Cn1cncn1)c1ccc(F)cc1F [VORICONAZOLE],0.125,1,> 32,–,–,–,–,–,–,–,–,–,–,–,–
